Experimental data published in BindingDB's records for patent US10934285 (Novartis, 2021).

Molecular target: T1, Tyrosine-protein phosphatase non-receptor type 11 (Homo sapiens, UniProt Q06124)
T1 sequence (Q06124 whole entry): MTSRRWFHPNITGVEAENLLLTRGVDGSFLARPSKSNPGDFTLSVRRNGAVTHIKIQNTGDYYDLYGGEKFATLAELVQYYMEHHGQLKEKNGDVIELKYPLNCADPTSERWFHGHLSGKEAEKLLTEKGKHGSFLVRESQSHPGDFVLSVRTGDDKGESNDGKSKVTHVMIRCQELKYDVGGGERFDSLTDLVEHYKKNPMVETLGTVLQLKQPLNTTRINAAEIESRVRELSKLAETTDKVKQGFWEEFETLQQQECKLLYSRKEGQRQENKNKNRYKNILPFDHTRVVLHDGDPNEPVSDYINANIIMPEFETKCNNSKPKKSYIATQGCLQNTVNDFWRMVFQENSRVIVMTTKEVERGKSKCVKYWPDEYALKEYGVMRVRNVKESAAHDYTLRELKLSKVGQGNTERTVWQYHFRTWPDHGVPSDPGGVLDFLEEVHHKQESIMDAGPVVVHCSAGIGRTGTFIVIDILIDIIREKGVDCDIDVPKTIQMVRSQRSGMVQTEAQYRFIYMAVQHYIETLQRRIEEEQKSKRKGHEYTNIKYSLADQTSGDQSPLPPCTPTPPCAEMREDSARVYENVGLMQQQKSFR
Test: Inhibition Assay
Experimental: After 30-60 minutes incubation at 25° C., the surrogate substrate DiFMUP (Invitrogen, cat #D6567) was added to the reaction and incubated at 25° C. for 30 minutes. The reaction was then quenched by the addition of 5 μl of a 160 μM solution of bpV(Phen) (Enzo Life Sciences cat #ALX-270-204). The fluorescence signal was monitored using a microplate reader (Envision, Perki-Elmer) using excitation and emission wavelengths of 340 nm and 450 nm, respectively. The inhibitor dose response curves were analyzed using normalized IC50 regression curve fitting with control based normalization.

| SMILES | IC50 |
| --- | --- |
| CN(c1cnc(Sc2cccc(NC(=O)c3c(O)nc4n(c3=O)CCCC4)c2Cl)c(N)n1)C1CC(C)(C)NC(C)(C)C1 [US10934285, Example 21] | 5.38 µM |
| CC1(CN)CCN(c2nnc(Sc3cccc(NC(=O)c4c(O)n5c(ccc6ccccc65)nc4=O)c3Cl)c(N)n2)CC1 [US10934285, Example 38] | 0.015 µM |
